Assay results reported in patent USRE42890E1, “Furazanobenzimidazoles” (Basilea Pharmaceutica AG, priority 2003, dated 2011).
Read-outs that look alike come from different tables or passages of the source.

Legend:
[1] = test system: HeLa; test: MTS proliferation assay, HeLa; type: cell-based, human; settings: 72 h incubation, read-out: MTS proliferation assay IC 50 HeLa
In short: (§1)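 Human lines, EGFP-transfected or not, grow in RPMI-1640 plus 5% or 10% FCS and 2-mercaptoethanol. They receive test compound for 72 h at final concentrations of 10, 3, 1 and 0.3 μM, and MTS conversion is measured at 492 nm.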

[2] = test system: Jurkat; test: MTS proliferation assay, Jurkat; type: cell-based, human; settings: 72 h incubation, read-out: MTS proliferation assay IC 50 Jurkat
In short: as §1

[3] = test system: Jily; test: MTS proliferation assay, Jily; type: cell-based; settings: 72 h incubation, read-out: MTS proliferation assay IC 50 Jily
In short: (§2)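 Seed cells in complete RPMI-1640 medium and allow 24 h attachment. Add compounds to final 10 μM, 3 μM, 1 μM or 0.3 μM and incubate 72 h at 37° C. Add MTS, incubate 3 h more, then measure absorption at 492 nm.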

[4] = test system: MRC5; test: MTS proliferation assay, MRC5; type: cell-based; settings: MRC5, 72 h incubation, read-out: MTS proliferation assay IC 50 MRC5
In short: as §2

[5] = test system: HT1080; test: MTS proliferation assay, HT1080; type: cell-based, human; settings: HT1080, 72 h incubation, read-out: MTS proliferation assay IC 50 HT1080
In short: as §1

[6] = test system: adherent cells or suspension cells; test: Hoechst 33342 nuclear staining (fraction of apoptotic nuclei); type: cell-based; design: key: 0 relating to no activity; 1 relating to weak activity comprising less than 70% of the cells; score 2 relating to strong activity comprising more than 70% of the cells

Row | Structure (SMILES) | IC50 [1] [nM] | IC50 [3] [nM] | Hoechst 33342 nuclear staining score ([6]; H460, conc 0.01 μm) | Hoechst 33342 nuclear staining score ([6]; H460, conc 0.1 μm) | Hoechst 33342 nuclear staining score ([6]; H460, conc 1 μm) | Hoechst 33342 nuclear staining score ([6]; HeLa, conc 0.01 μm) | Hoechst 33342 nuclear staining score ([6]; HeLa, conc 0.1 μm) | Hoechst 33342 nuclear staining score ([6]; HeLa, conc 1 μm) | Hoechst 33342 nuclear staining score ([6]; Jily, conc 0.01 μm) | Hoechst 33342 nuclear staining score ([6]; Jily, conc 0.1 μm) | Hoechst 33342 nuclear staining score ([6]; Jily, conc 1 μm) | Hoechst 33342 nuclear staining score ([6]; Jurkat, conc 0.01 μm) | Hoechst 33342 nuclear staining score ([6]; Jurkat, conc 0.1 μm) | Hoechst 33342 nuclear staining score ([6]; Jurkat, conc 1 μm) | Hoechst 33342 nuclear staining score ([6]; MRC5, conc 0.01 μm) | Hoechst 33342 nuclear staining score ([6]; MRC5, conc 0.1 μm) | Hoechst 33342 nuclear staining score ([6]; MRC5, conc 1 μm) | Hoechst 33342 nuclear staining score ([6]; PBLs, conc 0.01 μm) | Hoechst 33342 nuclear staining score ([6]; PBLs, conc 0.1 μm) | Hoechst 33342 nuclear staining score ([6]; PBLs, conc 1 μm) | other results
1 | N#CCCNc1nonc1-c1nc2ccccc2n1COc1ccc(Cl)cc1 [Example 93] | 100 to 1000 | 10 to 100 | 0 | 1 (1 relating to weak activity comprising less than 70% of the cells) | 2 (score 2 relating to strong activity comprising more than 70% of the cells) | 0 | 0 | 2 (score 2 relating to strong activity comprising more than 70% of the cells) | 0 | 2 (score 2 relating to strong activity comprising more than 70% of the cells) | 2 (score 2 relating to strong activity comprising more than 70% of the cells) | 0 | 2 (score 2 relating to strong activity comprising more than 70% of the cells) | 2 (score 2 relating to strong activity comprising more than 70% of the cells) | 0 | 0 | 2 (score 2 relating to strong activity comprising more than 70% of the cells) | 0 | 0 | 0 | IC50 [2]: 10 to 100 nM; IC50 [4]: 100 to 1000 nM; IC50 [5]: 100 to 1000 nM
2 | COc1ccc(C(=O)Cn2c(-c3nonc3NCCC#N)nc3ccccc32)cc1 [Example 48] | 10 to 100 | 10 to 100 | 0 | 0 | 2 (score 2 relating to strong activity comprising more than 70% of the cells) | 0 | 2 (score 2 relating to strong activity comprising more than 70% of the cells) | 2 (score 2 relating to strong activity comprising more than 70% of the cells) | 0 | 2 (score 2 relating to strong activity comprising more than 70% of the cells) | 2 (score 2 relating to strong activity comprising more than 70% of the cells) | 0 | 2 (score 2 relating to strong activity comprising more than 70% of the cells) | 2 (score 2 relating to strong activity comprising more than 70% of the cells) | 0 | 2 (score 2 relating to strong activity comprising more than 70% of the cells) | 2 (score 2 relating to strong activity comprising more than 70% of the cells) | 0 | 0 | 0 | IC50 [2]: < 10 nM; IC50 [4]: 10 to 100 nM; IC50 [5]: 10 to 100 nM
3 | Nc1nonc1-c1nc2ccccc2n1COc1ccc(Cl)c(Cl)c1 [Example 92] | 10 to 100 | 10 to 100 | 0 | 2 (score 2 relating to strong activity comprising more than 70% of the cells) | 2 (score 2 relating to strong activity comprising more than 70% of the cells) | 0 | 2 (score 2 relating to strong activity comprising more than 70% of the cells) | 2 (score 2 relating to strong activity comprising more than 70% of the cells) | 0 | 2 (score 2 relating to strong activity comprising more than 70% of the cells) | 2 (score 2 relating to strong activity comprising more than 70% of the cells) | 0 | 2 (score 2 relating to strong activity comprising more than 70% of the cells) | 2 (score 2 relating to strong activity comprising more than 70% of the cells) | 0 | 2 (score 2 relating to strong activity comprising more than 70% of the cells) | 2 (score 2 relating to strong activity comprising more than 70% of the cells) | 0 | 0 | 0 | IC50 [2]: 10 to 100 nM; IC50 [4]: 100 to 1000 nM; IC50 [5]: 10 to 100 nM
4 | N#CCCNc1nonc1-c1nc2ccccc2n1CC(=O)c1ccc(Cl)cc1 [Example 6, 4-[1-(4-Chlorophenacyl)-1H-benzimidazol-2-yl]-furazan-3-yl-N-(2-cyanoethyl)-amine] | – | 10 to 100 | 0 | 2 (score 2 relating to strong activity comprising more than 70% of the cells) | 2 (score 2 relating to strong activity comprising more than 70% of the cells) | 0 | 2 (score 2 relating to strong activity comprising more than 70% of the cells) | 2 (score 2 relating to strong activity comprising more than 70% of the cells) | 2 (score 2 relating to strong activity comprising more than 70% of the cells) | 2 (score 2 relating to strong activity comprising more than 70% of the cells) | 2 (score 2 relating to strong activity comprising more than 70% of the cells) | 2 (score 2 relating to strong activity comprising more than 70% of the cells) | 2 (score 2 relating to strong activity comprising more than 70% of the cells) | 2 (score 2 relating to strong activity comprising more than 70% of the cells) | 2 (score 2 relating to strong activity comprising more than 70% of the cells) | 2 (score 2 relating to strong activity comprising more than 70% of the cells) | 2 (score 2 relating to strong activity comprising more than 70% of the cells) | 0 | 0 | 0 | IC50 ([1]; Homo sapiens): 10 to 100 nM; IC50 ([2]; Homo sapiens): < 10 nM; IC50 ([4]; Homo sapiens): 100 to 1000 nM; IC50 ([5]; Homo sapiens, HT-1080): 10 to 100 nM
5 | Nc1nonc1-c1nc2ccccc2n1CC(=O)/C=C/c1ccccc1 [Example 12, E-1-[2-(4-Aminofurazan-3-yl)-benzimidazol-1-yl]-4-phenyl-but-3-en-2-one] | – | 100 to 1000 | 0 | 0 | 0 | 0 | 0 | 0 | 0 | 0 | 2 (score 2 relating to strong activity comprising more than 70% of the cells) | 0 | 0 | 2 (score 2 relating to strong activity comprising more than 70% of the cells) | 0 | 0 | 0 | 0 | 0 | 0 | IC50 ([1]; Homo sapiens): > 1000 nM; IC50 ([2]; Homo sapiens): 100 to 1000 nM; IC50 ([4]; Homo sapiens): > 1000 nM; IC50 ([5]; Homo sapiens, HT-1080): > 1000 nM
